Reference: ChEMBL document CHEMBL1201862, “PubChem BioAssay data set” (2004)
Values belong to the compound of their own block, whether it stands above or below them. Activity calls are given as the source filed them.

Experiments:
[1] = non-specific 3'UTR reporter inhibition in Clone20-Shn3RL – cell-based, Renilla luciferase, cherry-picked, counter-screen for Shn3 inhibitor project, dose response (AID 624133); type: functional
[2] = reduction of Shn3 3'UTR-driven luciferase in osteoblasts – cell-based, Clone20 osteoblasts, firefly luciferase, cherry-picked, dose response (AID 624132); type: functional;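 note: firefly luciferase luminescence from reporter carrying the Shn3 3'UTR in osteoblasts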
[3] = Shn3 3'UTR reporter signal decrease – cell-based, Clone20 osteoblasts, firefly luciferase, cherry-pick, set 2, Schnurri-3 inhibitor project, dose response (AID 720490); type: functional;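 note: actives lower the luminescence signal as inhibitors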
[4] = target: Endoplasmic reticulum aminopeptidase 1 (Homo sapiens, UniProt Q9NZ08); assay: inhibition of human ERAP1 enzyme activity – biochemical, cherry-pick, set 2, plate reader, dose response (AID 743314)
Endoplasmic reticulum aminopeptidase 1, sequence (Q9NZ08 whole entry): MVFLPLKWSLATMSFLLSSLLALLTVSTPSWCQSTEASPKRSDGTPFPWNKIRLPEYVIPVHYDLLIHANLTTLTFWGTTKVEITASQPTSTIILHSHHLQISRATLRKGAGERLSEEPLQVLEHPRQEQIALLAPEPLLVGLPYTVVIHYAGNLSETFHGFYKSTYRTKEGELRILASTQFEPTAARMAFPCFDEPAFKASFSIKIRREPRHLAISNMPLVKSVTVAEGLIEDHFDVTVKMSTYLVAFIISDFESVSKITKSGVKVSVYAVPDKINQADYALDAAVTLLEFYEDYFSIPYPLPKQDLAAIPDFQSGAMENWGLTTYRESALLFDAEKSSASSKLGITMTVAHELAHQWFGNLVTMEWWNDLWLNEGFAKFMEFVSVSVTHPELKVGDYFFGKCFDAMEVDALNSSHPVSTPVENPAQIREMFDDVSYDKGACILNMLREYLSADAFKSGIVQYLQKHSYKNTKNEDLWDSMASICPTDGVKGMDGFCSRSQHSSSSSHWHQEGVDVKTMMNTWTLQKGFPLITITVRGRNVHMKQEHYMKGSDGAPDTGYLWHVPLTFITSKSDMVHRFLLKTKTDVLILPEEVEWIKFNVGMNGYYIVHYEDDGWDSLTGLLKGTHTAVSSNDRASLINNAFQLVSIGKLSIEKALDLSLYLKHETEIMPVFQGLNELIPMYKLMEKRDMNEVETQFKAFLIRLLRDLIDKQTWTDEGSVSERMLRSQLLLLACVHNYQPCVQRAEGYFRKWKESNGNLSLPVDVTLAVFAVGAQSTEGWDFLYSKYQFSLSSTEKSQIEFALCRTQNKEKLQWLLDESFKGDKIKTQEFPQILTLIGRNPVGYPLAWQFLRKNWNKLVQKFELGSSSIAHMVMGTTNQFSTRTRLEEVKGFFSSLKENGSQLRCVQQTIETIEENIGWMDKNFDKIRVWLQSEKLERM

Aminopeptidase N = target: T1, Aminopeptidase N (Plasmodium falciparum FcB1/Columbia, UniProt O96935); assay: malaria alanyl aminopeptidase activity blockers – biochemical, fluorogenic H-Leu-NHMec substrate, 1536-well (AID 1445); design: species or system Plasmodium falciparum 3D7, 3D7
T1 sequence (O96935 whole entry): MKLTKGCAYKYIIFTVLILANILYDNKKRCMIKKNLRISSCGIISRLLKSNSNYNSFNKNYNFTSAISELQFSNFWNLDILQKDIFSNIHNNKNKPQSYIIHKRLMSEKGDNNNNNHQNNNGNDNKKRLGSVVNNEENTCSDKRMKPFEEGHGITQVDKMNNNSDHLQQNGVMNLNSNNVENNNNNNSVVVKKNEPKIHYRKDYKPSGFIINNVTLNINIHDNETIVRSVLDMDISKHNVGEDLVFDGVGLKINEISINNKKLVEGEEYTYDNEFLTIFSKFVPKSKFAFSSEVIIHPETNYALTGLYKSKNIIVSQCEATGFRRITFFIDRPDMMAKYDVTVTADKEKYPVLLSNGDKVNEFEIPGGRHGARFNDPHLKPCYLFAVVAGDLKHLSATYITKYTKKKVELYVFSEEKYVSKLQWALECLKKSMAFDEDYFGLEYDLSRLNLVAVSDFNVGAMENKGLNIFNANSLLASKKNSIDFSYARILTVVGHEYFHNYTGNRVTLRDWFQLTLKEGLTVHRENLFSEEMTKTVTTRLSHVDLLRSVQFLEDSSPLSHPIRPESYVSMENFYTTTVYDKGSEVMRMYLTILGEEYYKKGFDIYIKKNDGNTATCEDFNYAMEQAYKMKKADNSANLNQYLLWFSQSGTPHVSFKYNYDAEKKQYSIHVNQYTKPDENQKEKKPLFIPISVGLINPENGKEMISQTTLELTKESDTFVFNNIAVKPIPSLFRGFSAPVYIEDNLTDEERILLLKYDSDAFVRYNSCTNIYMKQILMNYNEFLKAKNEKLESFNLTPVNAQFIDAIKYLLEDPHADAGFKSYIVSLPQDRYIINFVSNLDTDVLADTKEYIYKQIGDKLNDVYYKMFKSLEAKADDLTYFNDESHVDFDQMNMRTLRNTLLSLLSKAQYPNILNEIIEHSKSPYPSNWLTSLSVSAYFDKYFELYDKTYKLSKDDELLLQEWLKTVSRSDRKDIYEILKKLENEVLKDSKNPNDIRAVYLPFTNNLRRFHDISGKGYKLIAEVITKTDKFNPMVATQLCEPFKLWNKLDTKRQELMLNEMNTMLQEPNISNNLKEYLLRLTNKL

Kallikrein-7 = Kallikrein-7 (Homo sapiens, UniProt P49862); assay: Fluorescence Intensity-based biochemical primary high throughput dose response assay to identify activators of kallikrein-7 (K7) zymogen.
Kallikrein-7, sequence (P49862 whole entry): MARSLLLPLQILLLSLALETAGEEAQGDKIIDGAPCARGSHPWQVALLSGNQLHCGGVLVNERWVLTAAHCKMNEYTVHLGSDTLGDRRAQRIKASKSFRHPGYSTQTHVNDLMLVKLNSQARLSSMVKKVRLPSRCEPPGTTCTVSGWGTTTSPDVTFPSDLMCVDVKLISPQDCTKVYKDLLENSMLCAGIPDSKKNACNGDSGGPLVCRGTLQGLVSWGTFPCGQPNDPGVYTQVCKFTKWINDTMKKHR

[5] = target: FAD-linked sulfhydryl oxidase ALR (Homo sapiens, UniProt P55789); assay: ALR-catalysed DTT oxidation blockers – biochemical, H2O2 detection, luminescence, cherry-pick, dose response (AID 493248)
FAD-linked sulfhydryl oxidase ALR, sequence (P55789 whole entry): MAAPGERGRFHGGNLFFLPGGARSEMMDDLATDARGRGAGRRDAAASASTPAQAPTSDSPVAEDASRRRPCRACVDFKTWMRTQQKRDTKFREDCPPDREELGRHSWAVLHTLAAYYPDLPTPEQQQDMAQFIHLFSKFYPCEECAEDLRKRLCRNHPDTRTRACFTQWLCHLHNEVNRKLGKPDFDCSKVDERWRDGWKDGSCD

P388 = assay: cells; type: functional; settings: Mus musculus
Cytochrome P450 1A2 = target: T2, Cytochrome P450 1A2 (Homo sapiens, UniProt P05177);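 note: PubChem cytochrome P450 panel assay, CYP1A2 panel member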
T2 sequence (P05177 whole entry): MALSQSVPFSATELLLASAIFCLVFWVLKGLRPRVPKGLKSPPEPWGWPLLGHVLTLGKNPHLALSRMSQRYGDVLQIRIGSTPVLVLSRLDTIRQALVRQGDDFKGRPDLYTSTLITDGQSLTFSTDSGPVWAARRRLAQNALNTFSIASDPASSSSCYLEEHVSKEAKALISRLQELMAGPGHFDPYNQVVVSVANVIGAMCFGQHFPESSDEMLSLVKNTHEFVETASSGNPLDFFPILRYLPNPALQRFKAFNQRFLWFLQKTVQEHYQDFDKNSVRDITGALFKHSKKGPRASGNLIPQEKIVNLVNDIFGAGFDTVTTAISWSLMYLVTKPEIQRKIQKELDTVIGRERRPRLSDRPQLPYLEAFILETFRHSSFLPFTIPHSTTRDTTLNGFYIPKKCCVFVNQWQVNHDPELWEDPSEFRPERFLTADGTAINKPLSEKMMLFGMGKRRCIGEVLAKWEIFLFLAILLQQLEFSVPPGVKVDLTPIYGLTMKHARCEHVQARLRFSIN

P388/ADR = assay: cells; type: functional; settings: Mus musculus
SN12K1 = assay: cells; type: functional; settings: Homo sapiens
[6] = fluconazole-exposed Candida albicans growth modulators – fluorescence, retest, confirmation (AID 2467); type: functional, cell-based
[7] = NIH-3T3 fibroblast cytotoxicity, dose response, cytotoxicity control, cell-based, fluorescence, Alamar Blue, secondary assay (AID 2327); type: functional;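 note: NIH-3T3 mouse fibroblasts cultured with fluconazole at 8 µg/mL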
cells = settings: HEK293
Protein skinhead-1 = target: T3, Protein skinhead-1 (Caenorhabditis elegans, UniProt P34707); type: functional
T3 sequence (P34707 whole entry): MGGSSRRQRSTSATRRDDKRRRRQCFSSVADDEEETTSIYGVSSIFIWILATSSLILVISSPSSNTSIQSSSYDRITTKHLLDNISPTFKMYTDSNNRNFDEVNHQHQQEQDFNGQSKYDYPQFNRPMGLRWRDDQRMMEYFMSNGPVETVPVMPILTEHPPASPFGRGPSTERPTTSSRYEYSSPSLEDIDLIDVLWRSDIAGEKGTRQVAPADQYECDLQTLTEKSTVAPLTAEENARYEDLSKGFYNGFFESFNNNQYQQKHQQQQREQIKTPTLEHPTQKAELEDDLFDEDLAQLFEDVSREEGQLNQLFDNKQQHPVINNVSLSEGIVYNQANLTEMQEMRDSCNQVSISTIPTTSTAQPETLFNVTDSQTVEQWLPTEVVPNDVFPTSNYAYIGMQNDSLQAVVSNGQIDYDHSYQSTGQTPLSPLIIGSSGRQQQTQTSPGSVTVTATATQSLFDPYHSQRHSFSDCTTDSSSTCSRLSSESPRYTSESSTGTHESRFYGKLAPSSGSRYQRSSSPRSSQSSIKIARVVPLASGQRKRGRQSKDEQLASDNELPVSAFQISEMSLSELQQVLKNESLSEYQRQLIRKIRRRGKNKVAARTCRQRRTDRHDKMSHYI

SMILES: COc1ccccc1NC(=O)Cn1cc(C(=O)C2CC2)c2ccccc21
- AC50 [1]: 29 µM (active)
- AC50 [2]: 4.76 µM (active)
- AC50 [3]: 6.08 µM (active)

- AC50 [4]: 6.77 µM (active)
- IC50 (Aminopeptidase N): 33.6 µM (active)
SMILES: Cc1cc(=O)oc2c(CN3CCN(C)CC3)c(O)c(Cl)cc12

- EC50 (Kallikrein-7): 12.4 µM (inactive)
SMILES: O=c1c(-c2ccccc2)coc2c(CN3CCOCC3)c(O)ccc12

SMILES: COc1cc2ccc(=O)oc2cc1O [SCOPOLETIN]
- AC50 [5]: 4.4 µM (active)
- GI50 (P388): 5.55 µM (inactive)
- AC50 (Cytochrome P450 1A2): 5.01 µM (inconclusive)
- AC50 [4]: 5.79 µM (active)
- GI50 (P388/ADR): 12.5 µM (inactive)
- GI50 (SN12K1): 19.4 µM (inactive)

SMILES: CCc1cccc(C)c1N=C(S)NCc1ccc2c(c1)cc(C)n2C
- EC50 [6]: > 38 µM (not active)
- EC50 [7]: 51.5 µM (active)
- AC50 (cells): > 52 µM (inactive)
- IC50 (Protein skinhead-1): > 100 µM (inactive)

SMILES: CCCOc1c(Br)cc(C2C3=C(CCCC3=O)N(C)C3=C2C(=O)CCC3)cc1OC
- AC50 (cells): > 52 µM (inactive)
